One test relates to Klebsiella pneumoniae. The experiment in a line: Antibacterial activity against Klebsiella pneumoniae at 10 ug/ml after 24 hr by disk diffusion method. The conditions noted are these: read-out: DIZ. The format is functional.
The test system of another test is Staphylococcus aureus. The experiment in a line: Antibacterial activity against Staphylococcus aureus at 10 ug/ml after 24 hr by disk diffusion method. The format is functional. The conditions noted are these: read-out: DIZ.
The next test has as its system Pseudomonas aeruginosa. In words: Antibacterial activity against Pseudomonas aeruginosa at 10 ug/ml after 24 hr by disk diffusion method. The format is functional. The following applies: read-out: DIZ.
For a further test, the system named is Aspergillus niger. In words: Antifungal activity against Aspergillus niger at 50 ug/ml after 48 hr by agar plate diffusion method. Type of test: functional.
The next test has as its system Aspergillus flavus. In words: Antifungal activity against Aspergillus flavus at 50 ug/ml after 48 hr by agar plate diffusion method. Type of test: functional.
The subject of another test is HepG2. In words: Cytotoxicity against Homo sapiens (human) HepG2 cells by MTT assay. The format is functional, cell-based.
For another test, the system named is MCF7. In words: Cytotoxicity against Homo sapiens (human) MCF7 cells by MTT assay. Type of test: functional, cell-based.
In a further test the test system is WiDr. The experiment in a line: Cytotoxicity against Homo sapiens (human) WiDr cells by MTT assay. The format is functional, cell-based.
For a further test, the system named is HeLa. In words: Cytotoxicity against Homo sapiens (human) HeLa cells by MTT assay. Type of test: functional, cell-based.

Calls of active or inactive are those of the source. The rule behind the calls is not given here.

`COc1ccc(/C=C(\C#N)c2nc3cc(Cl)ccc3o2)cc1`: the zone of inhibition at 10 µg/mL with Klebsiella pneumoniae is 10 mm; in the test with Staphylococcus aureus, 5 mm; in the test on Pseudomonas aeruginosa, 10 mm. Moreover, the inhibition at 50 µg/mL with Aspergillus niger and in the test with Aspergillus flavus was 65% each time. Also, the result with HepG2, with MCF7, in the test on WiDr and with HeLa was Active.
For `N#CC(=C1CCCCC1)c1nc2cc(Cl)ccc2o1`, the figures for the zone of inhibition at 10 µg/mL in the test with Klebsiella pneumoniae, with Staphylococcus aureus and in the test on Pseudomonas aeruginosa were 5 mm, 10 mm and 10 mm, respectively. The values for the inhibition at 50 µg/mL in the test on Aspergillus niger and with Aspergillus flavus were 60% and 75%, respectively. Moreover, the result in the test on HepG2, with WiDr and in the test with HeLa was Active. For the same compound, the result with MCF7 was inactive.
In the case of `N#C/C(=N\Nc1ccc(Cl)cc1)c1nc2cc(Cl)ccc2o1`, the zone of inhibition at 10 µg/mL in the test with Klebsiella pneumoniae was 10 mm; in the test on Staphylococcus aureus it was 5 mm; with Pseudomonas aeruginosa, 10 mm. Further, the inhibition at 50 µg/mL in the test on Aspergillus niger was determined as 70%; with Aspergillus flavus it was 65%. Also, the outcome in the test on HepG2, in the test with WiDr and with HeLa was inactive. In addition, the outcome with MCF7 was Active.
On to `N#C/C(=N\Nc1ccccc1)c1nc2cc(Cl)ccc2o1`, for which the zone of inhibition at 10 µg/mL in the test on Klebsiella pneumoniae, in the test on Staphylococcus aureus and in the test with Pseudomonas aeruginosa was 10 mm each time. In addition, the result in the test on HepG2 and with HeLa was Active. Also, the outcome with MCF7 and with WiDr was inactive.
Consider `COc1ccc(N/N=C(\C#N)c2nc3cc(Cl)ccc3o2)cc1`, for which the figures for the zone of inhibition at 10 µg/mL with Klebsiella pneumoniae, with Staphylococcus aureus and in the test with Pseudomonas aeruginosa were 5 mm, 10 mm and 5 mm, respectively. Also, the inhibition at 50 µg/mL was 65% in the test with Aspergillus niger and 50% with Aspergillus flavus. Besides, the result with HepG2, with MCF7, with WiDr and in the test on HeLa was Active.
With `N#C/C(=N\Nc1ccc(Br)cc1)c1nc2cc(Cl)ccc2o1`, the zone of inhibition at 10 µg/mL in the test with Klebsiella pneumoniae, in the test on Staphylococcus aureus and in the test on Pseudomonas aeruginosa was 10 mm each time. Besides, the outcome with HepG2, in the test on MCF7 and in the test on HeLa was Active. Besides, the outcome in the test on WiDr was inactive.
For the compound `COc1cc(/C=C(\C#N)c2nc3cc(F)ccc3o2)cc(OC)c1OC`, the zone of inhibition at 10 µg/mL in the test with Klebsiella pneumoniae was found to be 15 mm; with Staphylococcus aureus, 20 mm; in the test with Pseudomonas aeruginosa it was 20 mm. Further, the values for the inhibition at 50 µg/mL with Aspergillus niger and with Aspergillus flavus were 95% and 90%, respectively. Besides, the outcome in the test with HepG2, in the test on MCF7, with WiDr and with HeLa was Active.
In the case of `COc1cc(/C=C(\C#N)c2nc3cc(Cl)ccc3o2)cc(OC)c1OC`, the zone of inhibition at 10 µg/mL with Klebsiella pneumoniae was 10 mm; with Staphylococcus aureus it was 15 mm; with Pseudomonas aeruginosa it was 15 mm. In addition, the inhibition at 50 µg/mL in the test with Aspergillus niger came out at 80%; in the test on Aspergillus flavus it was 85%. The result with HepG2, with MCF7, in the test with WiDr and with HeLa was Active.
With `N#C/C(=C\c1ccc(O)cc1)c1nc2cc(Cl)ccc2o1`, the zone of inhibition at 10 µg/mL with Klebsiella pneumoniae, with Staphylococcus aureus and in the test on Pseudomonas aeruginosa was 10 mm throughout. For the same compound, the inhibition at 50 µg/mL with Aspergillus niger amounted to 50%; with Aspergillus flavus, 60%. In addition, the result in the test on HepG2 and in the test with HeLa was Active. Moreover, the outcome in the test on MCF7 and in the test on WiDr was inactive.
As for `N#C/C(=C\c1ccccc1)c1nc2cc(Cl)ccc2o1`, the zone of inhibition at 10 µg/mL in the test with Klebsiella pneumoniae, in the test with Staphylococcus aureus and with Pseudomonas aeruginosa was 10 mm in each case. For the same compound, the inhibition at 50 µg/mL was determined as 65% with Aspergillus niger and 60% in the test with Aspergillus flavus. Moreover, the result in the test on HepG2, with WiDr and in the test on HeLa was inactive. For the same compound, in the test on MCF7, the result was Active.
As to `N#CC(=C1CCCC1)c1nc2cc(Cl)ccc2o1`, the zone of inhibition at 10 µg/mL turned out to be 10 mm in the test on Klebsiella pneumoniae, 15 mm in the test with Staphylococcus aureus and 10 mm in the test with Pseudomonas aeruginosa. Besides, the results for the inhibition at 50 µg/mL in the test on Aspergillus niger and with Aspergillus flavus were 75% and 60%, respectively. Besides, the outcome in the test on HepG2, with MCF7, in the test with WiDr and in the test on HeLa was Active.

These data come from ChEMBL document CHEMBL3045673, “Synthesis of some novel 2-substituted benzoxazoles as anticancer, antifungal, and antimicrobial agents” (2008).
